From patent US20080057086A1, “COLON-TARGETED ORAL FORMULATIONS OF CYTIDINE ANALOGS” (PHARMION CORPORATION, priority 2006, published 2008)
Like-named read-outs stand apart in the source and are kept apart here.

How the values were obtained:
[1] = Clinical study of single oral doses of 5-azacytidine (oral formulation of Example 3): PK, bioavailability, safety; assay type: in vivo, human; settings: for bioavailability: oral, SC reference dose = 135 mg, AUC = 777 ng · h/mL, read-out: F, percent bioavailability compared with historical SC azacitidine data
Description: The study was a multicenter, open-label, single treatment study. Patients were treated with escalating doses, in 20 mg increments, up to 200 mg. The study assessed the safety and tolerability of escalating doses, provided pilot information on the oral bioavailability of the study drug, and provided information on the single dose pharmacokinetics of the study drug after oral administration.
Multicenter, open-label, single-treatment, escalating-dose PK study. […] Single subject cohorts were used for each dose escalation. Subsequent subjects were to be treated at escalating doses, up to 200 mg, in 20 mg increments. Dose escalation was to continue until 1 of the following conditions was reached: • a.
If no safety concerns were identified and no Grade 3 or 4 AEs occurred in these subjects, dose escalation was to continue. […] Serial blood samples for plasma PK analyses were drawn before, and at the following time points after, dosing: 0.5, 1, 1.5, 2, 2.5, 3, 3.5, 4, 4.5, 5, 5.5, 6, 6.5, 7, 8 hours, and 12 hours (if possible). […] PK parameters calculated from plasma concentrations included (but were not limited to) Cmax, Tmax, t1/2, and AUC(0−∞).

[2] = Excipient compatibility studies; assay type: physicochemical
[3] = tested on: fetal hemoglobin production; settings: baboons; IV, SC or PO route; PO needed co-administration of THU; 0.25 to 8 mg/kg/d with 20 mg/kg/d THU; cited from earlier work
leukemic mice = settings: cited from earlier work
total hemoglobin = settings: β^0-thalassemic patient, cited from earlier work
[4] = tested on: total hemoglobin, fetal hemoglobin and F cells; settings: sickle cell patients, cited from earlier work
[5] = 1 subject, 60 mg single oral dose
[6] = 1 subject, 80 mg single oral dose
[7] = all 4 subjects, 60 or 80 mg single oral dose
[8] = human, plasma, po, 60 mg, Subject 101, 60 mg single oral dose (Example 3 tablets)
[9] = human, plasma, po, 60 mg, Subject 101, 60 mg single oral dose (Example 3 tablets), read-out: Plasma concentration
[10] = human, plasma, po, 80 mg, Mean (n = 3), 80 mg single oral dose (Example 3 tablets)
[11] = human, plasma, po, 80 mg, Mean of 80 mg dose group (n=3), single oral dose (Example 3 tablets), read-out: Mean plasma concentration
[12] = human, plasma, po, 80 mg, Subject 102, 80 mg single oral dose (Example 3 tablets)
[13] = human, plasma, po, 80 mg, Subject 102, 80 mg single oral dose (Example 3 tablets), read-out: Plasma concentration
[14] = human, plasma, po, 80 mg, Subject 201, 80 mg single oral dose (Example 3 tablets)
[15] = human, plasma, po, 80 mg, Subject 201, 80 mg single oral dose (Example 3 tablets), read-out: Plasma concentration
[16] = human, plasma, po, 80 mg, Subject 202, 80 mg single oral dose (Example 3 tablets)
[17] = human, plasma, po, 80 mg, Subject 202, 80 mg single oral dose (Example 3 tablets), read-out: Plasma concentration
[18] = PO administration with THU versus without, bioassay

Excipient compatibility ([2]; each excipient of the Example 3 formulation (Table 2)): compatible with each excipient
Excipient compatibility ([2]; each excipient of the Example 4 formulation (Table 3)): compatible with each excipient
Excipient compatibility ([2]; each excipient of the Example 6 formulation (Table 7)): compatible with each excipient
Excipient compatibility ([2]; each excipient of the Example 7 formulation (Table 8)): compatible with each excipient
Excipient compatibility ([2]; each excipient of the Example 8 formulation (Table 9)): compatible with each excipient
Excipient compatibility ([2]; each excipient of the Example 9 formulation (Table 10)): compatible with each excipient
Compound: Nc1ncn([C@@H]2O[C@H](CO)[C@@H](O)[C@H]2O)c(=O)n1 [5-azacytidine, 4-amino-1-β-D-ribofuranosyl-1,3,5-triazin-2(1H)-one]
Plasma samples with quantifiable 5-azacytidine [1, 5]: 2 samples
Tolerability [1, 5]: well tolerated
Consecutive plasma samples with detectable 5-azacytidine [1, 6]: 4 consecutive samples
Tolerability [1, 6]: well tolerated
Mean plasma concentration ([1]; Mean of 80 mg dose group (n=3), single oral dose (Example 3 tablets), 4.0 h): BLQ
Mean plasma concentration ([1]; Mean of 80 mg dose group (n=3), single oral dose (Example 3 tablets), 4.5 h): BLQ
Mean plasma concentration ([1]; Mean of 80 mg dose group (n=3), single oral dose (Example 3 tablets), 5.0 h): BLQ
Plasma concentration ([1]; Subject 101, 60 mg single oral dose (Example 3 tablets), 0.5 h): BLQ
Plasma concentration ([1]; Subject 101, 60 mg single oral dose (Example 3 tablets), 4.5 h): BLQ
Plasma concentration ([1]; Subject 101, 60 mg single oral dose (Example 3 tablets), 5.0 h): BLQ
Plasma concentration ([1]; Subject 102, 80 mg single oral dose (Example 3 tablets), 0.5 h): BLQ
Plasma concentration ([1]; Subject 102, 80 mg single oral dose (Example 3 tablets), 3.5 h): BLQ
Plasma concentration ([1]; Subject 102, 80 mg single oral dose (Example 3 tablets), 4.0 h): BLQ
Plasma concentration ([1]; Subject 102, 80 mg single oral dose (Example 3 tablets), 4.5 h): BLQ
Plasma concentration ([1]; Subject 102, 80 mg single oral dose (Example 3 tablets), 5.0 h): BLQ
Plasma concentration ([1]; Subject 201, 80 mg single oral dose (Example 3 tablets), 0.5 h): BLQ
Plasma concentration ([1]; Subject 201, 80 mg single oral dose (Example 3 tablets), 5.0 h): BLQ
Plasma concentration ([1]; Subject 202, 80 mg single oral dose (Example 3 tablets), 4.0 h): BLQ
Plasma concentration ([1]; Subject 202, 80 mg single oral dose (Example 3 tablets), 4.5 h): BLQ
Plasma concentration ([1]; Subject 202, 80 mg single oral dose (Example 3 tablets), 5.0 h): BLQ
Grade of AEs possibly related to study drug [1, 7]: Grade 2
Study-drug-related SAEs [1, 7]: No study-drug-related SAEs
bioavailability ([1]; human, plasma, 60 mg, Subject 101, 60 mg single oral dose): 6.7%
bioavailability ([1]; human, plasma, 80 mg, Mean (n = 3), 80 mg single oral dose): 18%
bioavailability ([1]; human, plasma, 80 mg, Subject 102, 80 mg single oral dose): 6.3%
bioavailability ([1]; human, plasma, 80 mg, Subject 201, 80 mg single oral dose): 24%
bioavailability ([1]; human, plasma, 80 mg, Subject 202, 80 mg single oral dose): 22%
AUC(0-inf) [1, 8]: 22.6 ng·h/mL
Cmax [1, 8]: 15.8 ng/mL
Tmax [1, 8]: 3 h
concentration at 0 h [1, 9]: 0 ng/mL
concentration at 1 h [1, 9]: 3.72 ng/mL
concentration at 1.5 h [1, 9]: 4.56 ng/mL
concentration at 2 h [1, 9]: 3.75 ng/mL
concentration at 3 h [1, 9]: 15.8 ng/mL
concentration at 3.5 h ([1]; human, plasma, po, 60 mg, Subject 101, 60 mg single oral dose (Example 3 tablets), 3.5 h, read-out: Plasma concentration): 4.27 ng/mL
concentration at 4 h ([1]; human, plasma, po, 60 mg, Subject 101, 60 mg single oral dose (Example 3 tablets), 4.0 h): 1.55 ng/mL
AUC(0-inf) [1, 10]: 81.5 ng·h/mL
Cmax [1, 10]: 53.2 ng/mL
Tmax [1, 10]: 1.5 h
half-life [1, 10]: 0.361 h
concentration at 0 h [1, 11]: 0 ng/mL
concentration at 0.5 h ([1]; human, plasma, po, 80 mg, Mean of 80 mg dose group (n=3), single oral dose (Example 3 tablets), 0.5 h, read-out: Mean plasma concentration): 1.49 ng/mL
concentration at 1 h [1, 11]: 46.6 ng/mL
concentration at 1.5 h [1, 11]: 53.2 ng/mL
concentration at 2 h [1, 11]: 36.9 ng/mL
concentration at 2.5 h [1, 11]: 17.5 ng/mL
concentration at 3 h [1, 11]: 6.3 ng/mL
concentration at 3.5 h ([1]; human, plasma, po, 80 mg, Mean of 80 mg dose group (n=3), single oral dose (Example 3 tablets), 3.5 h, read-out: Mean plasma concentration): 2.57 ng/mL
AUC(0-inf) [1, 12]: 28.6 ng·h/mL
Cmax [1, 12]: 34.3 ng/mL
Tmax [1, 12]: 1.5 h
half-life [1, 12]: 0.336 h
concentration at 0 h [1, 13]: 0 ng/mL
concentration at 1 h [1, 13]: 9.25 ng/mL
concentration at 1.5 h [1, 13]: 34.3 ng/mL
concentration at 2 h [1, 13]: 11 ng/mL
concentration at 2.5 h [1, 13]: 3.61 ng/mL
concentration at 3 h [1, 13]: 1.4 ng/mL
AUC(0-inf) [1, 14]: 111 ng·h/mL
Cmax [1, 14]: 75.1 ng/mL
Tmax [1, 14]: 2 h
half-life [1, 14]: 0.416 h
concentration at 0 h [1, 15]: 0 ng/mL
concentration at 1 h [1, 15]: 31.5 ng/mL
concentration at 1.5 h [1, 15]: 58.5 ng/mL
concentration at 2 h [1, 15]: 75.1 ng/mL
concentration at 2.5 h [1, 15]: 36.4 ng/mL
concentration at 3 h [1, 15]: 14.1 ng/mL
concentration at 3.5 h ([1]; human, plasma, po, 80 mg, Subject 201, 80 mg single oral dose (Example 3 tablets), 3.5 h, read-out: Plasma concentration): 6.1 ng/mL
concentration at 4 h ([1]; human, plasma, po, 80 mg, Subject 201, 80 mg single oral dose (Example 3 tablets), 4.0 h): 2.43 ng/mL
concentration at 4.5 h ([1]; human, plasma, po, 80 mg, Subject 201, 80 mg single oral dose (Example 3 tablets), 4.5 h): 1.19 ng/mL
AUC(0-inf) [1, 16]: 103 ng·h/mL
Cmax [1, 16]: 99.1 ng/mL
Tmax [1, 16]: 1 h
half-life [1, 16]: 0.366 h
concentration at 0 h [1, 17]: 0 ng/mL
concentration at 0.5 h ([1]; human, plasma, po, 80 mg, Subject 202, 80 mg single oral dose (Example 3 tablets), 0.5 h, read-out: Plasma concentration): 4.46 ng/mL
concentration at 1 h [1, 17]: 99.1 ng/mL
concentration at 1.5 h [1, 17]: 66.7 ng/mL
concentration at 2 h [1, 17]: 24.5 ng/mL
concentration at 2.5 h [1, 17]: 12.5 ng/mL
concentration at 3 h [1, 17]: 3.41 ng/mL
concentration at 3.5 h ([1]; human, plasma, po, 80 mg, Subject 202, 80 mg single oral dose (Example 3 tablets), 3.5 h, read-out: Plasma concentration): 1.61 ng/mL
Tmax ([1]; human, plasma, po, 80 mg, individual subjects who received an 80 mg oral dose (three values), post-dose): 1.5 h
Cmax increase versus the 60 mg dose ([1]; mean 80 mg oral dose): 3.5 fold
Time at which concentrations were below the level of quantitation ([1]; mean 80 mg oral dose): 4.0 h
Apparent oral bioavailability ([1]; oral formulation of Example 3): acceptable for therapeutic treatment
Fetal hemoglobin production [3]: induce fetal hemoglobin production
Effect of THU on clearance or degradation of 5-azacytidine (leukemic mice; IP administration with THU, bioassay): little effect
Cmax (leukemic mice; [18]): significantly increased
t1/2 (leukemic mice; [18]): significantly increased
Efficacy with co-administration of THU (leukemic mice; PO with THU, all doses except the highest chronic dose which was toxic): increased efficacy
Effect of THU on pharmacodynamic effects of 5-azacytidine (leukemic mice; acute and chronic IP dosing with THU, except at the highest chronic dose which was toxic): did not influence
Hemoglobin levels (total hemoglobin; 2 mg/d tid PO with co-administration of THU): did not result in increased hemoglobin levels
Hemoglobin levels (total hemoglobin; 2 mg/kg/d IV): measurable increase
Clinical response, SC without THU versus PO with THU ([4]; 2 mg/kg/d SC without THU versus 0.2 mg/kg/d PO with 200 mg/d THU): comparable clinical response
Clinical response (total hemoglobin, fetal hemoglobin and F cell levels) ([4]; 5-azacytidine co-administered with THU): good clinical response
F reticulocyte production ([4]; oral 5-azacytidine 2 mg/kg/d alone): did not result in increased F reticulocyte production
